Laboratory results from US12144886B2, “Perineural administration of resiniferatoxin for treatment of maladaptive pain” (Sorrento Therapeutics, Inc., priority 2018, dated 2024).

Legend:
[1] = system: Crl:CD(SD) Sprague Dawley rats; test: Single dose nerve block injection safety study in rats with 14-day recovery; assay type: in vivo, rat; details: for Food consumption: Days 2 to 7
Description: This study was directed to determining the safety of administering RTX, when given as a nerve block injection as a single dose to rats.
119 male and 119 female Crl:CD(SD) Sprague Dawley rats were obtained from Charles River Laboratories, Raleigh, NC. The animals were 10 weeks old and weighed between 212 and 482 g at the initiation of dosing.
The nerve block injection doses were given into the right thigh. The animals were temporarily restrained for dose administration. Animals were sedated via isoflurane inhalation for dose administration. The day of dosing for each animal was designated as Day 1. A necropsy was conducted for a recovery study animal that died on study, and specified tissues were retained. The animal was refrigerated prior to necropsy to minimize autolysis.
Toxicokinetic animals surviving until scheduled euthanasia were euthanized by carbon dioxide inhalation.
Main study and recovery animals were subjected to a complete necropsy examination. A board-certified veterinary pathologist was available for scheduled necropsies.
All statistical tests were conducted at the 5% significance level. All pairwise comparisons were conducted using two-sided tests.
The groups were compared using an overall one-way ANOVA F-test if Levene's test was not significant or the Kruskal-Wallis test if it was significant. […] Datasets with two groups were compared using a Dunnett's test (equivalent to t-test in Nevis 2012 tables) or Dunn's test (equivalent to Wilcoxon Rank-Sum test in Nevis 2012 tables).

[2] = system: declawed cats with chronic distal thoracic limb pain; test: QoL and pain monitoring (CSOMf, FMPI, owner reports) in open-label trial of perineural RTX in declawed cats; assay type: in vivo, cat
Experimental: Cats suffering from severe bilateral chronic pain (more than 90 days) as a result of severe complications after onychectomy were enrolled in this study (an exploratory, open-label, multicenter clinical trial). Thirteen (13) cases were treated for initial pain and reduced quality of life (QoL). Then, bilateral perineural distal limb injections (ring block technique) were administered under general anesthesia (a combination of diphenhydramine, buprenorphine, dexmedetomidine, ketamine, and isoflurane). Following a published technique (Enomoto et al., 2016) for the nerve block of the manus of the cat, the total dose of RTX was equally distributed adjacent to the 1) superficial branch of the radial nerve, 2) dorsal branch of the ulnar nerve, 3) median nerve and superficial branch of the palmar branch of the ulnar nerve, and 4) deep branch of palmar branch of the ulnar nerve. A total of 2.5 ug (1.25 ug/1 mL per forelimb in Group 1, n=7) and 5 ug (2.5 ug/1 mL per forelimb in Group 2, n=6) of RTX was injected as a one-time treatment. Group 2 included the cat for which detailed results are provided in Example B above. Monitoring of QoL and pain for the following 28 days was accomplished using the Client-Specific Outcome Measures feline (CSOMf), the Feline Musculoskeletal Pain Index (FMPI), two post-injection physical examinations, and videography on days 3, 7, 14, and 28 post injections.

[3] = 10 μg, both sexes, terminal euthanasia

In the case of `C=C(C)[C@]12C[C@@H](C)[C@@]34O[C@](Cc5ccccc5)(O[C@@H]1[C@@H]3C=C(COC(=O)Cc1ccc(O)c(OC)c1)C[C@]1(O)C(=O)C(C)=C[C@@H]41)O2` [RTX, resiniferatoxin], the Food consumption ([1]; 2.5 μg, females only) is reported as “statistically significant decrease”, the Unscheduled death ([1]; 2.5 μg, one recovery study female, unrelated to test article, attributed to aspiration-related foreign material/inflammation in the lung) is reported as “found dead on Day 2” and the “Microscopic change in the skeletal muscle” value ([1]; 10 μg) is reported as “myofiber degeneration/necrosis”. For the same compound, the Spleen microscopic correlate ([1]; 10 μg, both sexes) was “minimal decreased lymphoid cellularity of the white pulp”, the Thymus microscopic correlate ([1]; 10 μg, both sexes) was “minimal to mild decreased lymphoid cellularity” and the Spleen weights [1, 3] was “Statistically significant lower absolute and relative spleen weights”. The Thymic weights [1, 3] was “Lower absolute and relative thymic weights”, the Neutrophils ([1]; 10 μg, females only) was “statistically significant increase that remained increased after the recovery period” and the “Mean body weight gain” value ([1]; 10 μg, females, Days 1 to 14) was “statistically significant decrease”. For the same compound, the Food consumption ([1]; 10 μg, males only) was “statistically significant decrease”, the “Mean body weight gain” value ([1]; 10 μg, males, Days 1 to 2) was “statistically significant decrease” and the “Microscopic change in the mammary gland (non-adverse)” value ([1]; >2.5 μg) was “single cell necrosis”. The “Test article-related organ weight changes at end of recovery” value ([1]; end of the recovery period (Day 15)) was “not observed”, the “Reversibility of microscopic changes” value ([1]; following a 14-day recovery period) was “fully recovered” and the Clinical chemistry parameters ([1]; rats) was “no adverse RTX (resiniferatoxin)-related changes”. The “Tolerability as nerve block injection” value ([1]; rats, 0.625, 2.5, and 10 μg single dose) was “well tolerated”, the “Differences in hematology, coagulation, clinical chemistry and urinalysis parameters” value ([1]; rats, all dose groups) was “not considered adverse or were not considered vehicle or test article related” and the “no-observed-adverse-effect level (NOAEL)” value ([1]; rats, single nerve block injection) was 10 µg. For the same compound, the “Mortality, organ weight, gross observations” value ([1]; single dose 0, 0.625, 2.5, or 10 μg) was “no test article-related mortality, differences in organ weight, or gross observations”, the Gross findings ([1]; terminal euthanasia or recovery period animals) was “No test article-related gross findings” and the “CSOMf and FMPI scores” value ([2]; 28-day monitoring period, 13 cats) was “clear improvement”. For the same compound, the “Owner-reported natural and pathological adopted behaviors (QoL)” value ([2]; both groups) was “significant changes”, the “Duration of improvements reported informally” value ([2]; in some cases) was “over 6 months” and the “Treatment of distal thoracic limb pain” value ([2]; perineural injections, cats) was “can effectively treat”.
